This is an account of results in US7576226B2, “Process of making isomers of norelgestromin and methods using the same” (priority 2003, dated 2009).

The nature of data set [1]: Equilibrium solubility in distilled water (UV spectrophotometry). In kind it is physicochemical. The settings on record: thermodynamic from solid, room temperature. The method, then:
The determination of equilibrium solubility of E and Z isomers of norelgestromin was carried out in distilled water. 20 mg of norelgestromin was added to 20 mL of distilled water at room temperature. The suspension was stirred continuously and samples were withdrawn from time to time. The samples were filtered, and the norelgestromin content of the filtrates was determined by a spectrophotometrical method measuring UV absorption. The spectrophotometrical measurements were performed on a VARIAN Cary 3E spectrophotometer at room temperature.

Data set [2] can be described thus: Lipophilicity by isocratic reversed-phase HPLC (k′, CHI). The format is physicochemical. The settings on record: for Polarity (k′, HPLC): Nova-Pak C18, acetonitrile mobile phase, 25° C.; for Polarity (CHI index, HPLC): acetonitrile concentration of the mobile phase where log k′=0. As for the experimental part: Lipophilicity was determined by an HPLC method. The HPLC measurements were performed on a Thermo Separation Product (SpectraSystem P4000 and SpectraFOCUS Forward Optical Scanning Detector) HPLC instrument. Data were analyzed by ChromQuest (ver. 2.51) software.
For reversed-phase HPLC measurements, a Nova-Pak C18 column was used (dimension of 4 μm×4.6 mm×250 mm: Waters, Ireland). Detection was performed at λ=280 nm and 25° C. The flow rate of the mobile phase was 1.0 mL/min. HPLC gradient grade acetonitrile was used as organic component (Merck KGaA., Darmstadt, Germany). The retention data of the two isomers were obtained by isocratical analysis of the mobile phases containing different amounts of acetonitrile. The void time (t0) was determined by injection of methanol.
Samples were dissolved in a 1:1 mixture of acetonitrile:water in a concentration of 1 mg/4 mL. The log k′ values were calculated from the mean retention time measured after two subsequent injections of 10 μL volume (log k′=log((tR−t0)/t0)). The log k′ values were represented as a function of the concentration of acetonitrile.
The chromatographical hydrophobicity index (CHI) is a measure of the lipophilic character of the compounds in the reversed phase HPLC measurements. By definition, the CHI parameter is that concentration of acetonitrile of the mobile phase where log k′=0.

The nature of data set [3]: Metabolic stability and clearance in human liver microsomes. The format is in vitro ADME. The conditions noted are these: human liver microsomes 1 mg/mL, 5 μM isomer, mean of 3 parallel measurements; for Metabolic stability: F% (metabolic bioavailability). The method, then:
The metabolic stability of norelgestromin E and Z isomers was examined in human liver microsomes. The 2.5 mL incubation mixture contained 6 mM of Na-pyrophosphate, 5 mM of MgCl2, 5 mM of glucose-6-phosphate, 1 U/mL of glucose 6-phosphate dehydrogenase, human liver microsomes (1 mg/mL) and 5 μM of norelgestromin E or Z isomers. The pH was adjusted with 100 mM of Tris-HCl buffer to pH 7.4. The reaction was started by the addition of 5 mM of NADPH. 0.5 mL samples were taken at 0.5 and 20 minutes with immediate precipitation by 0.5 mL of ice-cold methanol. 1 mL precipitated samples were centrifuged for 30 min at 1200 g, and 10 μL of supernatant was injected into the HPLC.
Analytical measurements were conducted using a Merck-Hitachi HPLC system, with UV monitoring at 244 nm. Unchanged material was measured and intrinsic clearance (Clint) and metabolic bioavailability (F%) was calculated with the following equations: dc/dt/c0=Clint, (mL/min×g protein), where dc/dt is the concentration change in a given period of time and c0 is the initial concentration of the norelgestromin isomer (measured in the 0 min sample). Additionally, Clint1×45=Clint2 (mL/min×g liver) and EH=Clin2/Clint2+HBF, where EH is hepatic extraction and HBF is the hepatic blood flow. Finally the metabolic stability: […]
For statistical analysis, Student's t-test was used (Microsoft Excel). The results summarized in Table 2 are calculated as a mean of 3 parallel measurements.
Background: Liver microsomes are a subcellular fraction often used to study metabolism.

Data set [4] deals with Caco-2 human adenocarcinoma (epithelial) cell line monolayers. Put plainly: Caco-2 permeability measurement. The conditions noted are these: Caco-2 monolayer, luminal to basolateral, 50 μM. In kind it is in vitro ADME. As for the experimental part:
Drug absorption studies were performed with Caco-2 human adenocarcinoma (epithelial) cell line monolayers as an in vitro model. Passive flux characteristics of drugs across the Caco-2 monolayer have shown a correlation with human oral bioavailability.
Caco-2 cells obtained from American Type Culture collection, Rockville, Md., (ATCC) were grown at 37° C. in an atmosphere of 5% CO2 in Dulbecco's modified eagle medium supplemented with 10% heat inactivated fetal bovine serum (GIBCOBRL 11360-039) and antibiotics: penicillin 100 U/mL, and streptomycin 100 μg/mL (GIBCOBRL 15140-031).
Confluent cell monolayers grown in an incubator (at 37° C. with 5% CO2/[…] and 95% humidity) were subcultured every seven days by treatment with 0.25% trypsin containing 1 mM EDTA.
19-23-day-old confluent monolayers of fully differentiated Caco-2 cells were used for transport studies after 6-10 passages.
EHS Cell Attachment Matrix (Promega G5971), Minimum Essential medium Eagle (MEM) with Earle salts, L-Glutamine (GIBCOBRL 41500-091) and Transwell Polycarbonate Membrane (Costar 3401) were used.
Coated Transwells with EHS Cell Attachment Matrix (Promega G5971) and 200000-500000 Caco-2 cells are applied/inserted. […]
The concentrations of the isomers were determined by liquid chromatography with ultraviolet (HPLC/UV) analysis. […]
Dim.: 125−3 mm.+guard. […] Peak quantitation: height; calculation method: EXT-STD.
In general terms: Caco-2 cells form a polarised layer with tight junctions and transporters.

The nature of data set [5]: CHI of six steroids (structure-absorption experiment). In kind it is physicochemical. The settings on record: chromatographical hydrophobicity index, isocratical conditions. As for the experimental part:
The beneficial effect of the increasing lipophilicity for the transdermal absorption was proven by carrying out a structure-absorption experiment with six different steroids. In the following publications: Int. J. Pharm. 217:1 (2001), and J. Chromatography 49:631 (1993), it has been shown that the chromatographical hydrophobicity index (CHI) measured under isocratical conditions is a reliable descriptor of lipophilicity. The CHI values of the investigated steroids were determined according to these experiments (Table 3) and correlated with the measured stratum corneum/water distribution coefficients.

Values after ≈ are worked out from the molar mass of the structure shown.

Consider `C#C[C@]1(O)CC[C@H]2[C@@H]3CCC4=C/C(=N/O)CC[C@@H]4[C@H]3CC[C@@]21CC` (single isomer, unassigned; isomer d) [E-isomer, d-(17α)-13-ethyl-17-hydroxy-18,19-dinorpregn-4-ene-20-yn-3-one-(3E)-oxime], for which the solubility (commonly the concentration that dissolves in the medium under given conditions) in data set [1] came to 3.8 µg/mL (≈ 11.6 µM). In addition, in data set [2], the “Polarity (k′, HPLC)” value came to 1.02 and the “Polarity (CHI index, HPLC)” value came to 74. Moreover, in data set [3], the Metabolic stability was found to be 86.7 ± 1.67 and the “Metabolic clearance (mL/min g liver)” value came to 0.1815 ± 0.026 mL/min g liver. For the same molecule, the “Concentration on the abluminal side (μM in the 30th min)” value in data set [4] was determined as 1.27 ± 0.56 µM.

Consider `C#C[C@]1(O)CC[C@H]2[C@@H]3CCC4=C/C(=N\O)CC[C@@H]4[C@H]3CC[C@@]21CC` (single isomer, unassigned; isomer d) [Z-isomer, d-(17α)-13-ethyl-17-hydroxy-18,19-dinorpregn-4-ene-20-yn-3-one-(3Z)-oxime], for which the concentration in solution in data set [1] (solubility) came to 12.1 µg/mL (≈ 37 µM). In addition, in data set [2], the “Polarity (k′, HPLC)” value is 1.46 and the “Polarity (CHI index, HPLC)” value is listed as 70. Moreover, in data set [3], the Metabolic stability was found to be 91.9 ± 1.52 and the “Metabolic clearance (mL/min g liver)” value was 0.1042 ± 0.021 mL/min g liver. In data set [4], the “Concentration on the abluminal side (μM in the 30th min)” value came out at 1.98 ± 0.78 µM.

As for `C[C@]12CCC(=O)C=C1CC[C@@H]1[C@@H]2CC[C@@]2(C)[C@H]1CC[C@]2(O)C(=O)CO` [Cortexolone], the CHI in data set [5] is recorded as 54.87.

Consider `C[C@]12CC[C@@H]3c4ccc(O)cc4CC[C@H]3[C@@H]1C[C@@H](O)[C@@H]2O` [Estriol], for which the CHI in data set [5] is listed as 40.45.

Molecule `C[C@]12CCC(=O)C=C1CC[C@@H]1[C@@H]2[C@@H](O)C[C@@]2(C)[C@H]1CC[C@]2(O)C(=O)CO` [Hydrocortisone] registered a CHI in data set [5] of 33.8.

`CC(=O)[C@H]1CC[C@H]2[C@@H]3CC=C4C[C@@H](O)CC[C@]4(C)[C@H]3CC[C@]12C` [Pregnenolone]: the CHI in data set [5] is 95.36.

Take `C[C@]12CC[C@H]3[C@@H](CCC4=CC(=O)CC[C@@]43C)[C@@H]1CC[C@@H]2O` [Testosterone]: in data set [5], the CHI was 75.87.
